In the supplement of paper PMC10307832:

Legend:
Test in all cases: relative viability (nuclei count vs DMSO), 5 days (fraction); higher = more cells survive
AZ628 + Crizotinib = compound: CC1=C(C=C(C=C1)NC(=O)C2=CC(=CC=C2)C(C)(C)C#N)NC3=CC4=C(C=C3)N=CN(C4=O)C [AZ628] + C[C@@H](Oc1cc(-c2cnn(C3CCNCC3)c2)cnc1N)c1c(Cl)ccc(F)c1Cl [Crizotinib] (partner 1 µM)
Summary of the method: (§1)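 Relative viability divides the nuclei count in treated wells by that in vehicle wells. Lung cancer cell lines were seeded in 1536-well plates, dosed by pin tool the next day, and fixed and stained after 5 days in one step with final 0.05% Triton X-100, 1% formaldehyde and 1 ug/ml Hoechst. Dosing was a single drug or a fixed anchor-drug dose plus five library-drug doses (not always all listed) in √10 steps, and values are medians of duplicate plates imaged at 4×.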

[1] = compound: C[As](C)SC[C@H](NC(=O)CC[C@H](N)C(=O)O)C(=O)NCC(=O)O [Darinaparsin] + Nc1nc2[nH]cc(CCc3ccc(C(=O)N[C@@H](CCC(=O)O)C(=O)O)cc3)c2c(=O)[nH]1 [Pemetrexed] (partner 0.2 µM)
Summary of the method: as §1

[2] = compound: C[As](C)SC[C@H](NC(=O)CC[C@H](N)C(=O)O)C(=O)NCC(=O)O [Darinaparsin] + C[C@@H](Oc1cc(-c2cnn(C3CCNCC3)c2)cnc1N)c1c(Cl)ccc(F)c1Cl [Crizotinib] (partner 1 µM)
Summary of the method: as §1

[3] = compound: C[As](C)SC[C@H](NC(=O)CC[C@H](N)C(=O)O)C(=O)NCC(=O)O [Darinaparsin] + CCNC(=O)c1noc(-c2cc(C(C)C)c(O)cc2O)c1-c1ccc(CN2CCOCC2)cc1 [Luminespib] (partner 0.01 µM)
Summary of the method: as §1

Work on NCI-H23 yielded a relative viability (AZ628 + Crizotinib; first compound 0.08 µM) of 0.498, a relative viability (AZ628 + Crizotinib; first compound 0.253 µM) of 0.49 and a relative viability (AZ628 + Crizotinib; first compound 0.8 µM) of 0.347. For the same cell line, the relative viability (AZ628 + Crizotinib; first compound 2.53 µM) was 0.493, the relative viability (AZ628 + Crizotinib; first compound 8 µM) was 0.456 and the relative viability ([1]; first compound 0.08 µM) was 0.933. The relative viability ([1]; first compound 0.8 µM) was 0.616, the relative viability ([1]; first compound 2.53 µM) was 0.643 and the relative viability ([1]; first compound 8 µM) was 0.74. The relative viability ([2]; first compound 0.08 µM) was 0.753, the relative viability ([2]; first compound 0.8 µM) was 0.428 and the relative viability ([2]; first compound 2.53 µM) was 0.412. For the same cell line, the relative viability ([2]; first compound 8 µM) was 0.515, the relative viability ([3]; first compound 0.08 µM) was 0.212 and the relative viability ([3]; first compound 2.53 µM) was 0.217. The relative viability ([3]; first compound 8 µM) was 0.193.
NCI-H322M was tested, and the relative viability (AZ628 + Crizotinib; first compound 0.08 µM) was 0.819, the relative viability (AZ628 + Crizotinib; first compound 0.253 µM) was 1.04 and the relative viability (AZ628 + Crizotinib; first compound 0.8 µM) was 1.01. It also gave a relative viability (AZ628 + Crizotinib; first compound 2.53 µM) of 0.795, a relative viability (AZ628 + Crizotinib; first compound 8 µM) of 0.856 and a relative viability ([1]; first compound 0.08 µM) of 0.695. It also gave a relative viability ([1]; first compound 0.8 µM) of 0.582, a relative viability ([1]; first compound 2.53 µM) of 0.589 and a relative viability ([1]; first compound 8 µM) of 0.618. It also gave a relative viability ([2]; first compound 0.08 µM) of 1.02, a relative viability ([2]; first compound 0.8 µM) of 1.06 and a relative viability ([2]; first compound 2.53 µM) of 0.753. The relative viability ([2]; first compound 8 µM) was 1.03, the relative viability ([3]; first compound 0.08 µM) was 1.01 and the relative viability ([3]; first compound 0.8 µM) was 0.859. The relative viability ([3]; first compound 2.53 µM) was 0.596 and the relative viability ([3]; first compound 8 µM) was 0.839.
For NCI-H358, the relative viability (AZ628 + Crizotinib; first compound 0.08 µM) was 0.393, the relative viability (AZ628 + Crizotinib; first compound 0.253 µM) was 0.435 and the relative viability (AZ628 + Crizotinib; first compound 0.8 µM) was 0.583. The relative viability (AZ628 + Crizotinib; first compound 2.53 µM) was 0.51, the relative viability (AZ628 + Crizotinib; first compound 8 µM) was 0.32 and the relative viability ([1]; first compound 0.08 µM) was 0.176. It also gave a relative viability ([1]; first compound 0.8 µM) of 0.162, a relative viability ([1]; first compound 2.53 µM) of 0.172 and a relative viability ([1]; first compound 8 µM) of 0.18. The relative viability ([2]; first compound 0.08 µM) was 0.566, the relative viability ([2]; first compound 0.8 µM) was 0.499 and the relative viability ([2]; first compound 2.53 µM) was 0.576. For the same cell line, the relative viability ([2]; first compound 8 µM) was 0.673, the relative viability ([3]; first compound 0.08 µM) was 0.416 and the relative viability ([3]; first compound 0.8 µM) was 0.332. The relative viability ([3]; first compound 8 µM) was 0.344.
Work on NCI-H441 yielded a relative viability (AZ628 + Crizotinib; first compound 0.08 µM) of 0.809, a relative viability (AZ628 + Crizotinib; first compound 0.253 µM) of 0.569 and a relative viability (AZ628 + Crizotinib; first compound 0.8 µM) of 0.541. It also gave a relative viability (AZ628 + Crizotinib; first compound 2.53 µM) of 0.694, a relative viability (AZ628 + Crizotinib; first compound 8 µM) of 0.78 and a relative viability ([1]; first compound 0.08 µM) of 0.264. It also gave a relative viability ([1]; first compound 0.8 µM) of 0.239, a relative viability ([1]; first compound 2.53 µM) of 0.279 and a relative viability ([1]; first compound 8 µM) of 0.246. The relative viability ([2]; first compound 0.08 µM) was 0.956, the relative viability ([2]; first compound 0.8 µM) was 0.729 and the relative viability ([2]; first compound 2.53 µM) was 0.676. It also gave a relative viability ([2]; first compound 8 µM) of 0.701, a relative viability ([3]; first compound 0.08 µM) of 0.488 and a relative viability ([3]; first compound 0.8 µM) of 0.321. It also gave a relative viability ([3]; first compound 2.53 µM) of 0.364 and a relative viability ([3]; first compound 8 µM) of 0.245.
In the case of NCI-H460, the relative viability (AZ628 + Crizotinib; first compound 0.08 µM) is reported as 1.03, the relative viability (AZ628 + Crizotinib; first compound 0.253 µM) is reported as 0.92 and the relative viability (AZ628 + Crizotinib; first compound 0.8 µM) is reported as 0.872. For the same cell line, the relative viability (AZ628 + Crizotinib; first compound 2.53 µM) was 0.7, the relative viability (AZ628 + Crizotinib; first compound 8 µM) was 0.38 and the relative viability ([1]; first compound 0.08 µM) was 0.0581. It also gave a relative viability ([1]; first compound 0.8 µM) of 0.0587, a relative viability ([1]; first compound 2.53 µM) of 0.0655 and a relative viability ([1]; first compound 8 µM) of 0.0643. For the same cell line, the relative viability ([2]; first compound 0.8 µM) was 0.91, the relative viability ([2]; first compound 2.53 µM) was 0.607 and the relative viability ([2]; first compound 8 µM) was 1.56. For the same cell line, the relative viability ([3]; first compound 0.08 µM) was 0.0325, the relative viability ([3]; first compound 0.8 µM) was 0.033 and the relative viability ([3]; first compound 2.53 µM) was 0.0441. It also gave a relative viability ([3]; first compound 8 µM) of 0.0347.
NCI-H520 was tested, and the relative viability (AZ628 + Crizotinib; first compound 0.08 µM) was 0.707, the relative viability (AZ628 + Crizotinib; first compound 0.253 µM) was 0.788 and the relative viability (AZ628 + Crizotinib; first compound 0.8 µM) was 0.601. The relative viability (AZ628 + Crizotinib; first compound 2.53 µM) was 0.833, the relative viability (AZ628 + Crizotinib; first compound 8 µM) was 0.576 and the relative viability ([1]; first compound 0.08 µM) was 0.639. It also gave a relative viability ([1]; first compound 0.8 µM) of 0.613, a relative viability ([1]; first compound 2.53 µM) of 0.68 and a relative viability ([1]; first compound 8 µM) of 0.76. The relative viability ([2]; first compound 0.08 µM) was 0.873, the relative viability ([2]; first compound 0.8 µM) was 0.759 and the relative viability ([2]; first compound 2.53 µM) was 0.515. It also gave a relative viability ([2]; first compound 8 µM) of 0.924, a relative viability ([3]; first compound 0.08 µM) of 0.219 and a relative viability ([3]; first compound 0.8 µM) of 0.21. For the same cell line, the relative viability ([3]; first compound 2.53 µM) was 0.222 and the relative viability ([3]; first compound 8 µM) was 0.192.
Cell Line NCI-H596 has a relative viability (AZ628 + Crizotinib; first compound 0.08 µM) of 0.903, a relative viability (AZ628 + Crizotinib; first compound 0.253 µM) of 1.18 and a relative viability (AZ628 + Crizotinib; first compound 0.8 µM) of 1.08. For the same cell line, the relative viability (AZ628 + Crizotinib; first compound 2.53 µM) was 1.04, the relative viability (AZ628 + Crizotinib; first compound 8 µM) was 1.16 and the relative viability ([1]; first compound 0.08 µM) was 0.513. For the same cell line, the relative viability ([1]; first compound 0.8 µM) was 0.533, the relative viability ([1]; first compound 2.53 µM) was 0.479 and the relative viability ([1]; first compound 8 µM) was 0.508. The relative viability ([2]; first compound 0.08 µM) was 1.08, the relative viability ([2]; first compound 0.8 µM) was 0.999 and the relative viability ([2]; first compound 2.53 µM) was 0.765. It also gave a relative viability ([2]; first compound 8 µM) of 0.982, a relative viability ([3]; first compound 0.08 µM) of 1.14 and a relative viability ([3]; first compound 0.8 µM) of 1.12. The relative viability ([3]; first compound 2.53 µM) was 0.951 and the relative viability ([3]; first compound 8 µM) was 0.966.
In the case of NCI-H647, the relative viability (AZ628 + Crizotinib; first compound 0.08 µM) is reported as 1.24, the relative viability (AZ628 + Crizotinib; first compound 0.253 µM) is reported as 1.03 and the relative viability (AZ628 + Crizotinib; first compound 0.8 µM) is reported as 1.04. For the same cell line, the relative viability (AZ628 + Crizotinib; first compound 2.53 µM) was 0.984, the relative viability (AZ628 + Crizotinib; first compound 8 µM) was 0.793 and the relative viability ([1]; first compound 0.08 µM) was 0.189. The relative viability ([1]; first compound 0.8 µM) was 0.156, the relative viability ([1]; first compound 2.53 µM) was 0.166 and the relative viability ([1]; first compound 8 µM) was 0.146. It also gave a relative viability ([2]; first compound 0.08 µM) of 1.66, a relative viability ([2]; first compound 0.8 µM) of 1.1 and a relative viability ([2]; first compound 2.53 µM) of 1.16. It also gave a relative viability ([2]; first compound 8 µM) of 1.6, a relative viability ([3]; first compound 0.08 µM) of 0.176 and a relative viability ([3]; first compound 0.8 µM) of 0.154. It also gave a relative viability ([3]; first compound 2.53 µM) of 0.0855 and a relative viability ([3]; first compound 8 µM) of 0.215.
In the case of NCI-H650, the relative viability (AZ628 + Crizotinib; first compound 0.08 µM) is reported as 0.771, the relative viability (AZ628 + Crizotinib; first compound 0.253 µM) is reported as 0.73 and the relative viability (AZ628 + Crizotinib; first compound 0.8 µM) is reported as 0.553. It also gave a relative viability (AZ628 + Crizotinib; first compound 2.53 µM) of 0.68, a relative viability (AZ628 + Crizotinib; first compound 8 µM) of 0.599 and a relative viability ([1]; first compound 0.08 µM) of 0.947. It also gave a relative viability ([1]; first compound 0.8 µM) of 0.835, a relative viability ([1]; first compound 2.53 µM) of 0.959 and a relative viability ([1]; first compound 8 µM) of 1.02. It also gave a relative viability ([2]; first compound 0.08 µM) of 0.861, a relative viability ([2]; first compound 0.8 µM) of 0.574 and a relative viability ([2]; first compound 2.53 µM) of 0.683. The relative viability ([2]; first compound 8 µM) was 0.899, the relative viability ([3]; first compound 0.08 µM) was 0.81 and the relative viability ([3]; first compound 0.8 µM) was 0.793. It also gave a relative viability ([3]; first compound 2.53 µM) of 0.872 and a relative viability ([3]; first compound 8 µM) of 0.831.
For NCI-H661, the relative viability (AZ628 + Crizotinib; first compound 0.08 µM) was 0.975, the relative viability (AZ628 + Crizotinib; first compound 2.53 µM) was 1.1 and the relative viability (AZ628 + Crizotinib; first compound 8 µM) was 1.01. The relative viability ([1]; first compound 0.08 µM) was 0.915, the relative viability ([1]; first compound 0.8 µM) was 0.922 and the relative viability ([1]; first compound 2.53 µM) was 0.921. For the same cell line, the relative viability ([1]; first compound 8 µM) was 1.02, the relative viability ([2]; first compound 0.08 µM) was 1.08 and the relative viability ([2]; first compound 0.8 µM) was 1.11. It also gave a relative viability ([2]; first compound 2.53 µM) of 0.929, a relative viability ([2]; first compound 8 µM) of 1.1 and a relative viability ([3]; first compound 0.08 µM) of 0.934. It also gave a relative viability ([3]; first compound 0.8 µM) of 0.874, a relative viability ([3]; first compound 2.53 µM) of 1.08 and a relative viability ([3]; first compound 8 µM) of 1.04.
